Test results as given in patent US7312205B2, “Methods and compositions for inhibiting tumor growth” (Novelix Pharmaceuticals, Inc., priority 2003, dated 2007).

Tests used:
[1] = system: liposarcoma line (ATCC HTB-92); test: Growth inhibition in liposarcoma line ATCC HTB-92 (cell survival vs untreated controls); format: cell-based
Text: (§1) Examples 1 and 2 show direct comparisons between comparative compound A (betulic acid) and a novel derivative (compound B) in paired growth assays (cell count decrease after 3 days after a single application of the indicated concentrations of the respective compounds on day 1).
Comparison of the efficacy of comparative compound (A) (betulic acid) with that of compound (B) (protected betulic acid trisester) in a liposarcoma line (ATCC HTB-92). The X-axis indicates the concentration in μg/ml of compounds A and B, respectively, the Y-axis gives the cell survival rate in percent of the untreated controls. […]

melanoma cell line 518A2 = test: Growth inhibition in melanoma cell line 518A2 (cell survival vs untreated controls); format: cell-based
Text: as §1
Comparison of compound (A) (betulic acid) with compound (B) (protected betulic acid trisester)—Growth inhibition in melanoma cell line 518A2 (obtained from Peter Schrier, Leiden, The Netherlands) […]. The X-axis indicates the concentration in μg/ml of compounds A and B, respectively, the Y-axis gives the cell survival rate in percent of the untreated controls.
Comparison of the effects of different betulic acid derivatives according to the invention and of the comparative compound (betulic acid), respectively, on various melanoma-sarcoma lines. The data each refer to cell survival rates in percent (mean values) as against untreated cell cultures.
Survival in percent as with all other data after 3 days of cell culture after a single application on day 1

[2] = liposarcoma ATCC HTB-92, 0.3 μg/ml
[3] = liposarcoma ATCC HTB-92, 0.6 μg/ml
[4] = liposarcoma ATCC HTB-92, 1 μg/ml
[5] = liposarcoma ATCC HTB-92, 1.25 μg/ml
[6] = liposarcoma ATCC HTB-92, 2.5 μg/ml
[7] = liposarcoma ATCC HTB-92, 5 μg/ml
[8] = liposarcoma ATCC HTB-92, 10 μg/ml

C=C(C)[C@@H]1CC[C@]2(C(=O)O)CC[C@]3(C)[C@H](CC[C@@H]4[C@@]5(C)CC[C@H](O)C(C)(C)[C@@H]5CC[C@]43C)[C@@H]12 [A, betulic acid, reference compound]
survival in % [1, 2]: 98.0%
survival in % [1, 3]: 92.8%
survival in % [1, 4]: 92.3%
survival in % [1, 5]: 79.5%
survival in % [1, 6]: 49.3%
survival in % [1, 7]: 20.8%
survival in % [1, 8]: 15.7%

C=C(C)[C@@H]1CC[C@]2(C(=O)OCC(N)(CO)CO)CC[C@]3(C)[C@H](CC[C@@H]4[C@@]5(C)CC[C@H](OC(C)=O)C(C)(C)[C@@H]5CC[C@]43C)[C@@H]12 [Compound B, Acetyl betulic acid-2-amino-3-hydroxy-2-hydroxymethyl propyl ester]
survival in % [1, 2]: 89.5%
survival in % [1, 3]: 70.7%
survival in % [1, 4]: 12.0%
survival in % [1, 5]: 2.9%
survival in % [1, 6]: 3.0%
survival in % [1, 7]: 0.0%
survival in % [1, 8]: 0.0%
Survival in % melanoma (melanoma cell line 518A2; Test #1: stock 50 mg/ml in EtOH, 1.0 μg/ml, 3 days): 50%
Survival in % melanoma (melanoma cell line 518A2; Test #1: stock 50 mg/ml in EtOH, 2.0 μg/ml, 3 days): 0.5%
Survival in % melanoma (melanoma cell line 518A2; Test #1: stock 50 mg/ml in EtOH, 3.0 μg/ml, 3 days): 0.0%
Survival in % melanoma (melanoma cell line 518A2; Test #1: stock 50 mg/ml in EtOH, 4.0 μg/ml, 3 days): 0.0%
Survival in % melanoma (melanoma cell line 518A2; Test #2: inclusion compound, 5.9 mg/ml in 266 mg/ml HBC in H2O, 1.0 μg/ml, 3 days): 65%
Survival in % melanoma (melanoma cell line 518A2; Test #2: inclusion compound, 5.9 mg/ml in 266 mg/ml HBC in H2O, 2.0 μg/ml, 3 days): 25%
Survival in % melanoma (melanoma cell line 518A2; Test #2: inclusion compound, 5.9 mg/ml in 266 mg/ml HBC in H2O, 3.0 μg/ml, 3 days): 0.0%
Survival in % melanoma (melanoma cell line 518A2; Test #2: inclusion compound, 5.9 mg/ml in 266 mg/ml HBC in H2O, 4.0 μg/ml, 3 days): 0.0%
Survival in % melanoma (melanoma cell line 518A2; Test #3: inclusion compound, 20 mg/ml in 266 mg/ml HBC in 50% EtOH/50% H2O, 1.0 μg/ml, 3 days): 77%
Survival in % melanoma (melanoma cell line 518A2; Test #3: inclusion compound, 20 mg/ml in 266 mg/ml HBC in 50% EtOH/50% H2O, 2.0 μg/ml, 3 days): 24%
Survival in % melanoma (melanoma cell line 518A2; Test #3: inclusion compound, 20 mg/ml in 266 mg/ml HBC in 50% EtOH/50% H2O, 3.0 μg/ml, 3 days): 0.0%
Survival in % melanoma (melanoma cell line 518A2; Test #3: inclusion compound, 20 mg/ml in 266 mg/ml HBC in 50% EtOH/50% H2O, 4.0 μg/ml, 3 days): 0.0%
Survival in % melanoma (melanoma cell line 518A2; Test #4: inclusion compound, 25 mg/ml in 200 mg/ml HGC in 50% EtOH/50% H2O, 1.0 μg/ml, 3 days): 59%
Survival in % melanoma (melanoma cell line 518A2; Test #4: inclusion compound, 25 mg/ml in 200 mg/ml HGC in 50% EtOH/50% H2O, 2.0 μg/ml, 3 days): 4%
Survival in % melanoma (melanoma cell line 518A2; Test #4: inclusion compound, 25 mg/ml in 200 mg/ml HGC in 50% EtOH/50% H2O, 3.0 μg/ml, 3 days): 0.0%
survival in % (melanoma cell line 518A2; melanoma 518A2, 0.3 μg/ml): 83.0%
survival in % (melanoma cell line 518A2; melanoma 518A2, 0.6 μg/ml): 56.3%
survival in % (melanoma cell line 518A2; melanoma 518A2, 1 μg/ml): 11.3%
survival in % (melanoma cell line 518A2; melanoma 518A2, 1.25 μg/ml): 10.3%
survival in % (melanoma cell line 518A2; melanoma 518A2, 2.5 μg/ml): 2.8%
survival in % (melanoma cell line 518A2; melanoma 518A2, 5 μg/ml): 0.0%
survival in % (melanoma cell line 518A2; melanoma 518A2, 10 μg/ml): 0.0%
activity relative to comparative compound (A) (melanoma cell line 518A2; melanoma cell line 518A2, from ED50): up to 7 times

C=C(C)[C@@H]1CC[C@]2(C(=O)NC(CO)(CO)CO)CC[C@]3(C)[C@H](CC[C@@H]4[C@@]5(C)CC[C@H](OC(C)=O)C(C)(C)[C@@H]5CC[C@]43C)[C@@H]12 [Compound C, Acetyl betulic acid-N-(1,1-bis(hydroxymethyl)-2-hydroxyethyl)formamide]
survival in % [1, 2]: 96%
survival in % [1, 3]: 82%
survival in % [1, 4]: 81%
Survival in % melanoma (melanoma cell line 518A2; melanoma 518A2, 0.25 μg/ml): 96%
Survival in % melanoma (melanoma cell line 518A2; melanoma 518A2, 0.5 μg/ml): 93%
survival in % (melanoma cell line 518A2; melanoma 518A2, 1 μg/ml): 67.5%
